Paper PMC11111408, “Concurrent inhibition of oncogenic and wild-type RAS-GTP for cancer therapy” (Nature, 2024)

Tested on: PRISM DNA-barcoded human tumour cell lines
Test: PRISM pooled cell viability assay;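 as to PRISM AUC: 8 threefold dilutions from 10 µM with 5 days of exposure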
Assay type: cell-based
Set-up: AUC (PRISM viability) / AUC (PRISM): unit not given beside the values
Conditions: for AUC (PRISM viability): WT; for PRISM AUC: KRAS MUT
Experimental: Cells were then lysed in TCL mRNA lysis buffer, and then PCR with reverse transcription was performed. Detection of the barcodes and univariate and multivariate analysis was then performed as previously described. Data analysis is described in the Supplementary Methods. Up-to-date code for our analysis is at the github link: https://github.com/cmap/dockerized_mts.
For every gene with non-silent mutations in at least four cell-lines, we compared the AUC values between cells with and without those mutations using a t-test. This analysis was carried out for: (i) the full dataset; (ii) excluding cell lines with non-silent KRAS mutations; and (iii) excluding cell lines that have either KRAS or NRAS non-silent mutations.

CCn1c(-c2cc(N3CCN(C4CC4)CC3)cnc2[C@H](C)OC)c2c3cc(ccc31)-c1csc(n1)C[C@H](NC(=O)[C@H]1[C@@H]3COC[C@@H]31)C(=O)N1CCC[C@H](N1)C(=O)OCC(C)(C)C2 [RMC-7977]
AUC (PRISM viability) (SCC25_UPPER_AERODIGESTIVE_TRACT): 0.3367
AUC (PRISM viability) (SCLC21H_LUNG): 0.9496
AUC (PRISM viability) (SEM_HAEMATOPOIETIC_AND_LYMPHOID_TISSUE): 0.8793
AUC (PRISM viability) (SF126_CENTRAL_NERVOUS_SYSTEM): 0.7112
AUC (PRISM viability) (SF295_CENTRAL_NERVOUS_SYSTEM): 0.7908
AUC (PRISM viability) (SF539_CENTRAL_NERVOUS_SYSTEM): 0.7182
AUC (PRISM viability) (SH4_SKIN): 0.8584
PRISM AUC (SH10TC_STOMACH): 0.4138
PRISM AUC (SHP77_LUNG): 0.4654
AUC (PRISM viability) (SIMA_AUTONOMIC_GANGLIA): 0.5854
AUC (PRISM viability) (SKES1_BONE): 0.8807
AUC (PRISM viability) (SKHEP1_LIVER): 0.7844
AUC (PRISM viability) (SKLMS1_SOFT_TISSUE): 0.3954
PRISM AUC (SKLU1_LUNG): 0.1796
AUC (PRISM viability) (SKMEL3_SKIN): 1
AUC (PRISM viability) (SKMEL5_SKIN): 0.8492
AUC (PRISM viability) (SKMEL24_SKIN): 0.8551
AUC (PRISM viability) (SKMEL28_SKIN): 0.8799
AUC (PRISM viability) (SKMEL30_SKIN): 0.2141
AUC (PRISM viability) (SKMES1_LUNG): 0.4907
AUC (PRISM viability) (SKNAS_AUTONOMIC_GANGLIA): 0.2639
AUC (PRISM viability) (SKNBE2_AUTONOMIC_GANGLIA): 0.4969
AUC (PRISM viability) (SKNDZ_AUTONOMIC_GANGLIA): 0.7338
AUC (PRISM viability) (SKNMC_BONE): 0.8913
AUC (PRISM viability) (SKNO1_HAEMATOPOIETIC_AND_LYMPHOID_TISSUE): 0.4958
AUC (PRISM viability) (SKOV3_OVARY): 0.8555
AUC (PRISM viability) (SKUT1_SOFT_TISSUE): 0.8493
AUC (PRISM viability) (SNB75_CENTRAL_NERVOUS_SYSTEM): 0.7551
PRISM AUC (SNGM_ENDOMETRIUM): 0.5073
PRISM AUC (SNU1_STOMACH): 0.47
AUC (PRISM viability) (SNU46_UPPER_AERODIGESTIVE_TRACT): 0.6229
PRISM AUC (SNU61_LARGE_INTESTINE): 0.1577
AUC (PRISM viability) (SNU182_LIVER): 1
AUC (PRISM viability) (SNU201_CENTRAL_NERVOUS_SYSTEM): 0.8111
PRISM AUC (SNU213_PANCREAS): 0.2216
AUC (PRISM viability) (SNU216_STOMACH): 0.4345
AUC (PRISM viability) (SNU245_BILIARY_TRACT): 0.5897
AUC (PRISM viability) (SNU308_BILIARY_TRACT): 0.4973
AUC (PRISM viability) (SNU398_LIVER): 0.9232
PRISM AUC (SNU407_LARGE_INTESTINE): 0.42
PRISM AUC (SNU410_PANCREAS): 0.5771
AUC (PRISM viability) (SNU423_LIVER): 0.6851
AUC (PRISM viability) (SNU449_LIVER): 0.7416
AUC (PRISM viability) (SNU466_CENTRAL_NERVOUS_SYSTEM): 0.3575
AUC (PRISM viability) (SNU489_CENTRAL_NERVOUS_SYSTEM): 0.8437
PRISM AUC (SNU601_STOMACH): 0.2276
AUC (PRISM viability) (SNU685_ENDOMETRIUM): 0.8482
AUC (PRISM viability) (SNU719_STOMACH): 0.2772
AUC (PRISM viability) (SNU761_LIVER): 0.9921
AUC (PRISM viability) (SNU840_OVARY): 0.3829
PRISM AUC (SNU869_BILIARY_TRACT): 0.3809
AUC (PRISM viability) (SNU878_LIVER): 0.7757
AUC (PRISM viability) (SNU886_LIVER): 0.4222
AUC (PRISM viability) (SNU899_UPPER_AERODIGESTIVE_TRACT): 0.2281
AUC (PRISM viability) (SNU1076_UPPER_AERODIGESTIVE_TRACT): 0.2341
AUC (PRISM viability) (SNU1077_ENDOMETRIUM): 0.9228
AUC (PRISM viability) (SNU1079_BILIARY_TRACT): 0.7613
AUC (PRISM viability) (SNU1105_CENTRAL_NERVOUS_SYSTEM): 0.4704
AUC (PRISM viability) (SNU1196_BILIARY_TRACT): 0.9637
AUC (PRISM viability) (SNU1214_UPPER_AERODIGESTIVE_TRACT): 0.179
PRISM AUC (SNUC2A_LARGE_INTESTINE): 0.7905
AUC (PRISM viability) (SNUC4_LARGE_INTESTINE): 0.612
AUC (PRISM viability) (SQ1_LUNG): 0.3633
AUC (PRISM viability) (SR786_HAEMATOPOIETIC_AND_LYMPHOID_TISSUE): 0.6127
PRISM AUC (SUIT2_PANCREAS): 0.4229
PRISM AUC (SW480_LARGE_INTESTINE): 0.2548
AUC (PRISM viability) (SW579_THYROID): 0.4828
PRISM AUC (SW620_LARGE_INTESTINE): 0.1434
AUC (PRISM viability) (SW780_URINARY_TRACT): 0.559
PRISM AUC (SW900_LUNG): 0.3401
AUC (PRISM viability) (SW1088_CENTRAL_NERVOUS_SYSTEM): 0.6279
AUC (PRISM viability) (SW1271_LUNG): 0.5768
AUC (PRISM viability) (SW1353_BONE): 0.841
AUC (PRISM viability) (SW1710_URINARY_TRACT): 0.7469
AUC (PRISM viability) (SW1783_CENTRAL_NERVOUS_SYSTEM): 0.7461
PRISM AUC (SW1990_PANCREAS): 0.4703
PRISM AUC (T3M10_LUNG): 0.7347
AUC (PRISM viability) (T24_URINARY_TRACT): 0.4656
AUC (PRISM viability) (T47D_BREAST): 0.8281
PRISM AUC (T84_LARGE_INTESTINE): 0.5086
AUC (PRISM viability) (T98G_CENTRAL_NERVOUS_SYSTEM): 0.6265
AUC (PRISM viability) (TALL1_HAEMATOPOIETIC_AND_LYMPHOID_TISSUE): 0.6203
AUC (PRISM viability) (TC32_BONE): 0.7163
AUC (PRISM viability) (TC71_BONE): 0.7602
PRISM AUC (TCCPAN2_PANCREAS): 0.4522
AUC (PRISM viability) (TCCSUP_URINARY_TRACT): 0.7623
AUC (PRISM viability) (TE1_OESOPHAGUS): 0.7271
AUC (PRISM viability) (TE5_OESOPHAGUS): 0.4124
AUC (PRISM viability) (TE6_OESOPHAGUS): 0.4273
AUC (PRISM viability) (TE8_OESOPHAGUS): 0.499
AUC (PRISM viability) (TE9_OESOPHAGUS): 0.6448
AUC (PRISM viability) (TE10_OESOPHAGUS): 0.472
AUC (PRISM viability) (TE11_OESOPHAGUS): 0.5416
AUC (PRISM viability) (TE14_OESOPHAGUS): 0.4491
AUC (PRISM viability) (TE15_OESOPHAGUS): 0.2922
AUC (PRISM viability) (TE617T_SOFT_TISSUE): 0.2711
AUC (PRISM viability) (TF1_HAEMATOPOIETIC_AND_LYMPHOID_TISSUE): 0.2378
AUC (PRISM viability) (THP1_HAEMATOPOIETIC_AND_LYMPHOID_TISSUE): 0.3541
AUC (PRISM viability) (TM31_CENTRAL_NERVOUS_SYSTEM): 0.8811
PRISM AUC (TOV21G_OVARY): 0.5751
AUC (PRISM viability) (TOV112D_OVARY): 0.6714
AUC (PRISM viability) (TT2609C02_THYROID): 0.2965
AUC (PRISM viability) (TT_OESOPHAGUS): 0.5096
AUC (PRISM viability) (TT_THYROID): 1
AUC (PRISM viability) (TUHR4TKB_KIDNEY): 1
AUC (PRISM viability) (TYKNU_OVARY): 0.2088
AUC (PRISM viability) (U2OS_BONE): 0.5581
AUC (PRISM viability) (U87MG_CENTRAL_NERVOUS_SYSTEM): 0.5899
AUC (PRISM viability) (U118MG_CENTRAL_NERVOUS_SYSTEM): 0.8323
AUC (PRISM viability) (U178_CENTRAL_NERVOUS_SYSTEM): 0.6826
AUC (PRISM viability) (U251MG_CENTRAL_NERVOUS_SYSTEM): 0.531
AUC (PRISM viability) (U343_CENTRAL_NERVOUS_SYSTEM): 0.5615
AUC (PRISM viability) (U937_HAEMATOPOIETIC_AND_LYMPHOID_TISSUE): 0.5098
AUC (PRISM viability) (UACC62_SKIN): 0.8484
AUC (PRISM viability) (UACC257_SKIN): 0.9461
AUC (PRISM viability) (UMUC1_URINARY_TRACT): 0.3417
AUC (PRISM viability) (UO31_KIDNEY): 0.7674
AUC (PRISM viability) (VMCUB1_URINARY_TRACT): 0.3401
AUC (PRISM viability) (VMRCRCW_KIDNEY): 0.6728
AUC (PRISM viability) (VMRCRCZ_KIDNEY): 0.8522
AUC (PRISM viability) (WM88_SKIN): 0.8971
AUC (PRISM viability) (WM793_SKIN): 0.8157
AUC (PRISM viability) (WM983B_SKIN): 0.8254
AUC (PRISM viability) (WM1799_SKIN): 0.8407
AUC (PRISM viability) (WM2664_SKIN): 1
AUC (PRISM viability) (WSUDLCL2_HAEMATOPOIETIC_AND_LYMPHOID_TISSUE): 0.6176
PRISM AUC (YAPC_PANCREAS): 0.2462
PRISM AUC (YD8_UPPER_AERODIGESTIVE_TRACT): 0.7835
AUC (PRISM viability) (YD10B_UPPER_AERODIGESTIVE_TRACT): 0.2966
AUC (PRISM viability) (YD15_SALIVARY_GLAND): 0.5241
AUC (PRISM viability) (YD38_UPPER_AERODIGESTIVE_TRACT): 0.2157
AUC (PRISM viability) (YH13_CENTRAL_NERVOUS_SYSTEM): 0.7662
AUC (PRISM viability) (YKG1_CENTRAL_NERVOUS_SYSTEM): 0.6011
AUC (PRISM viability) (ZR751_BREAST): 0.8548
